In ChEMBL document CHEMBL4311969, “Polygala tenuifolia-Acori tatarinowii herbal pair as an inspiration for substituted cinnamic α-asaronol esters: Design, synthesis, anticonvulsant activity, and inhibition of lactate dehydrogenase study” (Eur J Med Chem, 2019):

Tests used:
[1] = Drug uptake in Sprague-Dawley rat spleen at 50 mg/kg, po; assay type: ADME, organism-based; conditions: in vivo
[2] = biological target: GABA-A receptor; alpha-1/beta-2/gamma-2 (Homo sapiens) (UniProt P14867+P47870+P18507); assay: Agonist activity at GABA alpha1beta2gamma2 receptor in human HEK293T at 3.3 to 300 uM at -50 mV holding potential by whole cell voltage clamp assay relative to control; assay type: protein-complex assay
[3] = Tmax in Sprague-Dawley rat heart at 50 mg/kg, po; assay type: ADME, organism-based
[4] = Tmax in Sprague-Dawley rat brain at 50 mg/kg, po; assay type: ADME, organism-based
Mus musculus [5] = assay: Anticonvulsant activity in Kunming mouse assessed as MES-induced hind limb extension at 100 mg/kg, ip administered 0. 5 hrs before MES stimulation relative to control; assay type: functional
Mus musculus [6] = assay: Potency index, ratio of ED50 of stiripentol to ED50 of compound anticonvulsant activity in ip dosed Kunming mouse assessed as MES-induced hind limb extension administered 0.5 hrs before MES stimulation; assay type: functional
Mus musculus [7] = assay: Potency index, ratio of ED50 of carbamazepine to ED50 of compound anticonvulsant activity in ip dosed Kunming mouse assessed as MES-induced hind limb extension administered 0.5 hrs before MES stimulation; assay type: functional
Mus musculus [8] = assay: Anticonvulsant activity in Kunming mouse assessed as reduction in ScPTZ-induced seizure at 100 mg/kg, ip administered 0.5 hrs before ScPTZ stimulation relative to control; assay type: functional; design: scale not given: the % may be the effect or the level left

In the case of `COc1cc(OC)c(OC)cc1/C=C/COC(=O)/C=C/c1c(OC)cc(OC)c(OC)c1OC`, the Drug uptake [1] is reported as “Active”, the %max [2] is reported as 356% and the Tmax [3] is reported as 1 h. For the same compound, the Tmax [4] was 1 h.

In the case of `COc1cc(OC)c(OC)cc1/C=C/COC(=O)/C=C/c1cc(OC)c(OC)c(OC)c1OC`, the Activity (Mus musculus [5]) is reported as 100%, the “Ratio ED50” value (Mus musculus [6]) is reported as 3.96 and the “Ratio ED50” value (Mus musculus [7]) is reported as 1.17. The Activity (Mus musculus [8]) was 100%.
